Data as given in US11339130B1 (Blade Therapeutics, Inc., priority 2016, dated 2022).
Read-outs that look alike come from different tables or passages of the source.

Legend:
Format in all cases: biochemical
[1] = target: T1, Human Calpain 2/NS1 (Homo sapiens, UniProt P17655); test: Calpain inhibition continuous fluorescence (FRET) assay, Human Calpain 2/NS1; settings: read-out: Human Calpain 2/NS1 IC50
T1 sequence (P17655 1-700): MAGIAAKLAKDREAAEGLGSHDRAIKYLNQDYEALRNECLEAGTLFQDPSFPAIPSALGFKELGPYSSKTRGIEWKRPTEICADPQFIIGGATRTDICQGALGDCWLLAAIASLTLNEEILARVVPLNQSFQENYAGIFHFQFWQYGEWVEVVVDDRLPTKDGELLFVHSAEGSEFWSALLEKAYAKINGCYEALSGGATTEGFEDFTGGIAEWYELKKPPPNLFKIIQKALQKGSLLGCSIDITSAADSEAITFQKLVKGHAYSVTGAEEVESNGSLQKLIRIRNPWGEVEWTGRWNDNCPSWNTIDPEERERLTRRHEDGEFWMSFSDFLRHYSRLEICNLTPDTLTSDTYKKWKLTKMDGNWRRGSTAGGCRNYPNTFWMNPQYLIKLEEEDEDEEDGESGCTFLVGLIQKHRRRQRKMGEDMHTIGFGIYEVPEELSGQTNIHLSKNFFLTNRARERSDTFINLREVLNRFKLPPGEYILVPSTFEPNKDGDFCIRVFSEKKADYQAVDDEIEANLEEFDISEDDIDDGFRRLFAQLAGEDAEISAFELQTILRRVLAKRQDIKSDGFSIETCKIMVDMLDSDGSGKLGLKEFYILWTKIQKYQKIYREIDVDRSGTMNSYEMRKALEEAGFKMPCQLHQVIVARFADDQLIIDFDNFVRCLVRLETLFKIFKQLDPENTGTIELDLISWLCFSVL
T1 sequence (P04632 1-268 partner): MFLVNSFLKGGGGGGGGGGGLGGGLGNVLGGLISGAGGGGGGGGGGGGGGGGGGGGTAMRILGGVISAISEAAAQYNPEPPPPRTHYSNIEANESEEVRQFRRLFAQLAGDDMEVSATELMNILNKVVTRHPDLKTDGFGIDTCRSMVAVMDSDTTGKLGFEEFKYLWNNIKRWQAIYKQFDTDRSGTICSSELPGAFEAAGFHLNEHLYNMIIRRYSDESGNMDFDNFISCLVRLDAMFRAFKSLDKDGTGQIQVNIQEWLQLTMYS
Description: (§1) Calpain 1, 2, and 9 activity and inhibition thereof was assessed by means of a continuous fluorescence assay. The SensoLyte 520 Calpain substrate (Anaspec Inc) was optimized for detecting calpain activity. This substrate contains an internally quenched 5-FAM/QXL™ 520 FRET pair. Calpains 1, 2, and 9 cleave the FRET substrate into two separate fragments resulting in an increase of 5-FAM fluorescence that is proportional to calpain activity
(§2) Assays were typically setup in black 384-well plates using automated liquid handling as follows. Calpain assay base buffer typically contains 50 mM Tris, pH 7.5, 100 mM NaCl and 1 mM DTT. Inhibitors were serially diluted in DMSO and used to setup 2× mixtures with calpains in the aforementioned buffer. After incubation at ambient temperature (25C), the reaction was initiated by adding a 2× mix of the fluorescent peptide substrate and CaCl2) (required for in-situ calpain activation) in the same buffer. Reaction progress curve data were typically collected for 10 min using excitation/emission wavelengths of 490 nm/520 nm on SpectraMax i3× or the FLIPR-Tetra plate readers (Molecular Devices Inc). Reaction rates were calculated from progress curve slopes typically over 1-5 min. Dose response curves (rate vs. log inhibitor concentration) were typically fit to a 4-parameter logistic function to extract IC50 values.

[2] = target: T2, Human Calpain 1/NS1 (Homo sapiens, UniProt P07384); test: Calpain inhibition continuous fluorescence (FRET) assay, Human Calpain 1/NS1; settings: read-out: Human Calpain 1/NS1 IC50
T2 sequence (P07384 1-714): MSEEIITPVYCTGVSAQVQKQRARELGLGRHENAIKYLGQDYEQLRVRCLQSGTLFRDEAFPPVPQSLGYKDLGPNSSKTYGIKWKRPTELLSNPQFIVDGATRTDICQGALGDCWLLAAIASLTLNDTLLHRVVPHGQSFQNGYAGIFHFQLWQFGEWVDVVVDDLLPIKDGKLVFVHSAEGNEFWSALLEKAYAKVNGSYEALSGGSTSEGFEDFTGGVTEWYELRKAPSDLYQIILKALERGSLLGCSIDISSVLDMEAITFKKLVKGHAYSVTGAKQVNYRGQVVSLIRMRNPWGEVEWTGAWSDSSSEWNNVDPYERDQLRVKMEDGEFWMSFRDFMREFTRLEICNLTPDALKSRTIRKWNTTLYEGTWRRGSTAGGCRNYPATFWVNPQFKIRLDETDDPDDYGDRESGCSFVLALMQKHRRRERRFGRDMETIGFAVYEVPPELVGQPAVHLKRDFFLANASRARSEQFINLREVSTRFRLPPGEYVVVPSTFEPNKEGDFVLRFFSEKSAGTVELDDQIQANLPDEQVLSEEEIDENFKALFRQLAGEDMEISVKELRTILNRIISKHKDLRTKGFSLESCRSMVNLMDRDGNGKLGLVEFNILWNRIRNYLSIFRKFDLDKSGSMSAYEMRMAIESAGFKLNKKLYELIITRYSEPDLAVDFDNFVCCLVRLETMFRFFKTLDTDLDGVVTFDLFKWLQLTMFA
T2 sequence (P04632 1-268 partner): T1 sequence (P04632 1-268 partner)
Description: as §1, §2

[3] = target: T3, Human Calpain 9/NS1 (Homo sapiens, UniProt O14815); test: Calpain inhibition continuous fluorescence (FRET) assay, Human Calpain 9/NS1; settings: read-out: Human Calpain 9/NS1 IC50
T3 sequence (O14815 1-690): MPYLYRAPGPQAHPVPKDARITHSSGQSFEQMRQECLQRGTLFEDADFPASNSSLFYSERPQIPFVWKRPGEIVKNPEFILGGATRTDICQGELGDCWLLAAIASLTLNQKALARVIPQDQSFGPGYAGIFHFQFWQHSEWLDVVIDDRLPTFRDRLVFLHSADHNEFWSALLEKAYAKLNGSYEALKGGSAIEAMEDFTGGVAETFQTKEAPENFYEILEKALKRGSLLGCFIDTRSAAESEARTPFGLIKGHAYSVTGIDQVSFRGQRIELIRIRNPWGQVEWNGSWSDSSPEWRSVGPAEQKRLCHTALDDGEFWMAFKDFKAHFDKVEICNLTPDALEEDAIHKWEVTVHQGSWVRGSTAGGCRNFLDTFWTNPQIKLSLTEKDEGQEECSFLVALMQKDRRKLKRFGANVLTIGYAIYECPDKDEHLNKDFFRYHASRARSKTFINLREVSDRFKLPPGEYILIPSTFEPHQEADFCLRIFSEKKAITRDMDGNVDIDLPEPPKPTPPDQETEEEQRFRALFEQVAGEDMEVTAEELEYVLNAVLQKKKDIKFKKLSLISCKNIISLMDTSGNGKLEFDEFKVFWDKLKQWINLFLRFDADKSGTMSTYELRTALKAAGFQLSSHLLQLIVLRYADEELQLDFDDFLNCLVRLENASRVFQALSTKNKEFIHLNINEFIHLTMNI
T3 sequence (P04632 1-268 partner): T1 sequence (P04632 1-268 partner)
Description: as §1, §2

## Cc1ccc(-c2c(C(=O)N[C@@H](Cc3ccccc3)C(=O)C(N)=O)cnn2C)cc1 [Compound 167, (S)—N-(4-amino-3,4-dioxo-1-phenylbutan-2-yl)-1-methyl-5-(p-tolyl)-1H-pyrazole-4-carboxamide]
[1]; Column B
  IC50: < 3 µM
[2]; Column A
  IC50: < 3 µM
[3]; Column C
  IC50: < 3 µM

## Cc1cc(C(=O)N[C@@H](Cc2ccccc2)C(=O)C(=O)NCc2ccc(Cl)c(Cl)c2)n(-c2ccccc2)n1 [Compound 149, (S)—N-(4-((3,4-dichlorobenzyl)amino)-3,4-dioxo-1-phenylbutan-2-yl)-3-methyl-1-phenyl-1H-pyrazole-5-carboxamide]
[1]; Column B
  IC50: > 10 µM
[2]; Column A
  IC50: > 10 µM
[3]; Column C
  IC50: > 10 µM

## O=C[C@H](Cc1ccccc1)NC(=O)c1cncn1-c1cc(-c2ncco2)ccn1 [Compound 110, (S)-1-(4-(oxazol-2-yl)pyridin-2-yl)-N-(1-oxo-3-phenylpropan-2-yl)-1H-imidazole-5-carboxamide]
[1]; Column B
  IC50: < 3 µM
[2]; Column A
  IC50: < 3 µM
[3]; Column C
  IC50: 3 to 10 µM

## Cc1cc(C(=O)N[C@@H](Cc2ccccc2)C(=O)C(N)=O)n(-c2cncnc2)n1 [Compound 138, (S)—N-(4-amino-3,4-dioxo-1-phenylbutan-2-yl)-3-methyl-1-(pyrimidin-5-yl)-1H-pyrazole-5-carboxamide]
[1]; Column B
  IC50: < 3 µM
[2]; Column A
  IC50: < 3 µM
[3]; Column C
  IC50: < 3 µM

## Cc1noc(-c2ccccc2)c1C(=O)N[C@@H](Cc1ccccc1)C(=O)C(=O)NCc1cccc(OC(F)(F)F)c1 [Compound 150, (S)—N-(3,4-dioxo-1-phenyl-4-((3-(trifluoromethoxy)benzyl)amino)butan-2-yl)-3-methyl-5-phenylisoxazole-4-carboxamide]
[1]; Column B
  IC50: > 10 µM
[2]; Column A
  IC50: > 10 µM
[3]; Column C
  IC50: > 10 µM

## Cc1noc(-c2ccccc2)c1C(=O)N[C@@H](Cc1ccccc1)C(=O)C(=O)NCc1ccc(OC(F)(F)F)cc1 [Compound 247, (S)—N-(3,4-dioxo-1-phenyl-4-((4-(trifluoromethoxy)benzyl)amino)butan-2-yl)-3-methyl-5-phenylisoxazole-4-carboxamide]
[1]; Column B
  IC50: 3 to 10 µM
[2]; Column A
  IC50: 3 to 10 µM
[3]; Column C
  IC50: 3 to 10 µM

## NC(=O)C(=O)C(Cc1ccccc1)NC(=O)c1conc1-c1ncccn1 (stereo not drawn) [Compound 324, N-(4-amino-3,4-dioxo-1-phenylbutan-2-yl)-3-(pyrimidin-2-yl)isoxazole-4-carboxamide]
[1]
  IC50: < 3 µM
[2]
  IC50: < 3 µM
[3]
  IC50: 3 to 10 µM

## O=C[C@H](Cc1ccccc1)NC(=O)c1cncn1-c1ccc(-c2ncco2)cn1 [Compound 111, (S)-1-(5-(oxazol-2-yl)pyridin-2-yl)-N-(1-oxo-3-phenylpropan-2-yl)-1H-imidazole-5-carboxamide]
[1]; Column B
  IC50: < 3 µM
[2]; Column A
  IC50: < 3 µM
[3]; Column C
  IC50: < 3 µM

## NC(=O)C(=O)[C@H](Cc1ccccc1)NC(=O)c1scnc1-n1cc(-c2ccccc2)cn1 [Compound 39, (S)—N-(4-amino-3,4-dioxo-1-phenylbutan-2-yl)-4-(4-phenyl-1H-pyrazol-1-yl)thiazole-5-carboxamide]
[1]; Column B
  IC50: < 3 µM
[2]; Column A
  IC50: < 3 µM
[3]; Column C
  IC50: < 3 µM

## Cc1cc(-n2nc(C(=O)N[C@@H](Cc3ccccc3)C(=O)C(N)=O)cc2C)nc(C)n1 [Compound 232, (S)—N-(4-amino-3,4-dioxo-1-phenylbutan-2-yl)-1-(2,6-dimethylpyrimidin-4-yl)-5-methyl-1H-pyrazole-3-carboxamide]
[1]; Column B
  IC50: > 10 µM
[2]; Column A
  IC50: > 10 µM
[3]; Column C
  IC50: 3 to 10 µM

## NC(=O)C(=O)C(Cc1ccccc1)NC(=O)c1c(C(F)(F)F)cnn1-c1ncccn1 (stereo not drawn) [Compound 410, N-(4-amino-3,4-dioxo-1-phenylbutan-2-yl)-1-(pyrimidin-2-yl)-4-(trifluoromethyl)-1H-pyrazole-5-carboxamide]
[1]
  IC50: 3 to 10 µM
[2]
  IC50: 3 to 10 µM
[3]
  IC50: 3 to 10 µM

## NC(=O)C(=O)C(Cc1ccccc1)NC(=O)c1c(Cl)cnn1-c1ccccc1 (stereo not drawn) [Compound 280, N-(4-amino-3,4-dioxo-1-phenylbutan-2-yl)-4-chloro-1-phenyl-1H-pyrazole-5-carboxamide]
[1]; Column B
  IC50: < 3 µM
[2]; Column A
  IC50: < 3 µM
[3]; Column C
  IC50: < 3 µM

## Cc1cc(C(=O)N[C@@H](Cc2ccccc2)C(=O)C(N)=O)n(-c2cccc3ncccc23)n1 [Compound 108, (S)—N-(4-amino-3,4-dioxo-1-phenylbutan-2-yl)-3-methyl-1-(quinolin-5-yl)-1H-pyrazole-5-carboxamide]
[1]; Column B
  IC50: < 3 µM
[2]; Column A
  IC50: < 3 µM
[3]; Column C
  IC50: < 3 µM

## O=C[C@H](Cc1ccccc1)NC(=O)[C@@H]1CCCN1c1nc2ccccc2s1 [Compound 3, (S)-1-(benzo[D]thiazol-2-yl)-N—((S)-1-oxo-3-phenylpropan-2-yl)pyrrolidine-2-carboxamide]
[1]; Column B
  IC50: < 3 µM
[2]; Column A
  IC50: < 3 µM
[3]; Column C
  IC50: < 3 µM

## NC(=O)C(=O)C(Cc1ccccc1)NC(=O)c1ccnn1Cc1ccccc1 (stereo not drawn) [Compound 283, N-(4-amino-3,4-dioxo-1-phenylbutan-2-yl)-1-benzyl-1H-pyrazole-5-carboxamide]
[1]; Column B
  IC50: < 3 µM
[2]; Column A
  IC50: < 3 µM
[3]; Column C
  IC50: < 3 µM

## NC(=O)C(=O)[C@H](Cc1ccccc1)NC(=O)c1cnnn1-c1ccccc1 [Compound 263, (S)—N-(4-amino-3,4-dioxo-1-phenylbutan-2-yl)-1-phenyl-1H-1,2,3-triazole-5-carboxamide]
[1]; Column B
  IC50: < 3 µM
[2]; Column A
  IC50: < 3 µM
[3]; Column C
  IC50: < 3 µM
